Experimental data taken from the NIST ThermoML archive (doi:10.1016/j.fluid.2010.10.028).

Test: xn = mol fraction of the nth substance listed
Settings: Liquid, Vibrating tube method

CC(C)=O [acetone] + CCCCCCC
Settings | mass density [kg/m3]
377.4 K, 104790 kPa, x1 = 0.492 | 730.51
377.4 K, 104810 kPa, x1 = 0.801 | 762.89
377.4 K, 109780 kPa, x1 = 0.492 | 733.39
377.4 K, 109790 kPa, x1 = 0.801 | 765.94
377.4 K, 109820 kPa, x1 = 0.7024 | 753.96
377.4 K, 109850 kPa, x1 = 0.611 | 743.53
377.4 K, 114760 kPa, x1 = 0.801 | 768.91
377.4 K, 114820 kPa, x1 = 0.7024 | 756.89
377.4 K, 114850 kPa, x1 = 0.611 | 746.4
377.4 K, 119800 kPa, x1 = 0.7024 | 759.71
377.4 K, 119830 kPa, x1 = 0.492 | 738.96
377.4 K, 119830 kPa, x1 = 0.801 | 771.84
377.4 K, 124810 kPa, x1 = 0.7024 | 762.48
377.4 K, 124850 kPa, x1 = 0.492 | 741.61
377.4 K, 124850 kPa, x1 = 0.801 | 774.66
377.4 K, 129810 kPa, x1 = 0.7024 | 765.17
377.4 K, 129840 kPa, x1 = 0.611 | 754.52
377.4 K, 129840 kPa, x1 = 0.801 | 777.42
377.4 K, 129850 kPa, x1 = 0.492 | 744.18
377.41 K, 1430 kPa, x1 = 0.4 | 667.78
377.41 K, 1430 kPa, x1 = 0.8992 | 667.78
377.41 K, 5010 kPa, x1 = 0.4 | 675.34
377.41 K, 5010 kPa, x1 = 0.8992 | 675.34
377.41 K, 10000 kPa, x1 = 0.4 | 684.66
377.41 K, 10000 kPa, x1 = 0.8992 | 684.66
377.41 K, 14980 kPa, x1 = 0.4 | 692.99
377.41 K, 14980 kPa, x1 = 0.8992 | 692.99
377.41 K, 19960 kPa, x1 = 0.4 | 700.52
377.41 K, 19960 kPa, x1 = 0.8992 | 700.52
377.41 K, 24950 kPa, x1 = 0.4 | 707.43
377.41 K, 24950 kPa, x1 = 0.8992 | 707.43
377.41 K, 29840 kPa, x1 = 0.801 | 699.24
377.41 K, 29860 kPa, x1 = 0.492 | 670
377.41 K, 29930 kPa, x1 = 0.4 | 713.82
377.41 K, 29930 kPa, x1 = 0.8992 | 713.82
377.41 K, 34850 kPa, x1 = 0.801 | 705.2
377.41 K, 34930 kPa, x1 = 0.4 | 719.78
377.41 K, 34930 kPa, x1 = 0.8992 | 719.78
377.41 K, 39850 kPa, x1 = 0.801 | 710.77
377.41 K, 39910 kPa, x1 = 0.4 | 725.35
377.41 K, 39910 kPa, x1 = 0.8992 | 725.35
377.41 K, 44860 kPa, x1 = 0.801 | 716
377.41 K, 44890 kPa, x1 = 0.4 | 730.6
377.41 K, 44890 kPa, x1 = 0.8992 | 730.6
377.41 K, 49850 kPa, x1 = 0.801 | 720.93
377.41 K, 49880 kPa, x1 = 0.4 | 735.58
377.41 K, 49880 kPa, x1 = 0.8992 | 735.58
377.41 K, 54850 kPa, x1 = 0.492 | 695.17
377.41 K, 54860 kPa, x1 = 0.4 | 740.29
377.41 K, 54860 kPa, x1 = 0.8992 | 740.29
377.41 K, 59860 kPa, x1 = 0.4 | 744.79
377.41 K, 59860 kPa, x1 = 0.8992 | 744.79
377.41 K, 64820 kPa, x1 = 0.492 | 703.44
377.41 K, 64830 kPa, x1 = 0.4 | 749.06
377.41 K, 64830 kPa, x1 = 0.8992 | 749.06
377.41 K, 69810 kPa, x1 = 0.4 | 753.19
377.41 K, 69810 kPa, x1 = 0.8992 | 753.19
377.41 K, 74900 kPa, x1 = 0.492 | 711.06
377.41 K, 79760 kPa, x1 = 0.4 | 760.91
377.41 K, 79760 kPa, x1 = 0.8992 | 760.91
377.41 K, 84740 kPa, x1 = 0.4 | 764.58
377.41 K, 84740 kPa, x1 = 0.8992 | 764.58
377.41 K, 89720 kPa, x1 = 0.4 | 768.12
377.41 K, 89720 kPa, x1 = 0.8992 | 768.12
377.41 K, 94700 kPa, x1 = 0.4 | 771.53
377.41 K, 94700 kPa, x1 = 0.8992 | 771.53
377.41 K, 99670 kPa, x1 = 0.4 | 774.85
377.41 K, 99670 kPa, x1 = 0.8992 | 774.85
377.41 K, 104650 kPa, x1 = 0.4 | 778.05
377.41 K, 104650 kPa, x1 = 0.8992 | 778.05
377.41 K, 109630 kPa, x1 = 0.4 | 781.18
377.41 K, 109630 kPa, x1 = 0.8992 | 781.18
377.41 K, 114600 kPa, x1 = 0.4 | 784.19
377.41 K, 114600 kPa, x1 = 0.8992 | 784.19
377.41 K, 114850 kPa, x1 = 0.492 | 736.23
377.41 K, 119570 kPa, x1 = 0.4 | 787.15
377.41 K, 119570 kPa, x1 = 0.8992 | 787.15
377.41 K, 124540 kPa, x1 = 0.4 | 790.02
377.41 K, 124540 kPa, x1 = 0.8992 | 790.02
377.41 K, 129820 kPa, x1 = 0.4 | 793
377.41 K, 129820 kPa, x1 = 0.8992 | 793
387.3 K, 19850 kPa, x1 = 0.611 | 656.37
387.31 K, 1350 kPa, x1 = 0.611 | 620.65
387.31 K, 4850 kPa, x1 = 0.611 | 628.99
387.31 K, 9850 kPa, x1 = 0.611 | 639.33
387.31 K, 14880 kPa, x1 = 0.611 | 648.36
387.31 K, 39860 kPa, x1 = 0.611 | 682.12
387.31 K, 49860 kPa, x1 = 0.611 | 692.49
387.31 K, 54850 kPa, x1 = 0.611 | 697.23
387.31 K, 64910 kPa, x1 = 0.611 | 706.07
387.31 K, 84880 kPa, x1 = 0.611 | 721.4
